DBAASP
Converted amounts (≈) assume the structure as drawn. “And” between values parts separate entries of the source, which are not always exact repeats. Equal entries are not always repeated.

Key:
Test in all cases: ≥ marks a high value that may be exact or a test limit, other limits are often not marked, values filed in µg/mL are converted to µM
[1] = system: Acinetobacter calcoaceticus
[2] = system: Pseudomonas aeruginosa
[3] = system: Staphylococcus aureus ATCC 2592
[4] = system: Shigella dysenteriae
[5] = system: Bacillus pumilus
[6] = system: Bacillus cereus
[7] = system: Candida albicans ATCC 2002
[8] = system: Escherichia coli ATCC 25922
[9] = system: Staphylococcus epidermidis ATCC 12228
[10] = system: Staphylococcus aureus KCTC 3881
[11] = system: Klebsiella pneumoniae ATCC 10031
[12] = system: Shigella dysenteriae ATCC 9752
[13] = system: Proteus mirabilis ATCC 25933
[14] = system: Escherichia coli KCTC 2433
[15] = system: Pseudomonas aeruginosa ATCC 9027
[16] = system: Bacillus subtilis ATCC 6633
[17] = system: Micrococcus luteus ATCC 4698
[18] = system: Candida albicans ATCC 36232
[19] = system: Staphylococcus aureus ATCC 6538
[20] = system: Escherichia coli ATCC 11775
[21] = system: Micrococcus luteus ATCC 49732
[22] = system: Staphylococcus aureus ATCC 12600
[23] = system: Escherichia coli SBS 363
[24] = system: Pseudomonas aeruginosa ATCC 14502
[25] = system: Enterococcus faecium A634
[26] = system: Staphylococcus aureus 1206
[27] = system: Bacillus subtilis BR151
[28] = system: Escherichia coli JM109
[29] = system: Bacillus subtilis KCCM 11495
[30] = system: Enterococcus faecium CCARM 5028
[31] = system: Enterococcus faecium CCARM 5029
[32] = system: Escherichia coli KCCM 11569
[33] = system: Pseudomonas aeruginosa CCARM 2095
[34] = system: Pseudomonas aeruginosa CCARM 2092
[35] = system: Staphylococcus aureus CCARM 3572
[36] = system: Mannheimia haemolytica Serovar 6
[37] = system: Pseudomonas aeruginosa PAO1
[38] = system: Mannheimia haemolytica Serovar 1
[39] = system: Pasteurella multocida
[40] = system: Corynebacterium pseudotuberculosis ATCC 19410
[41] = system: Salmonella enterica subsp. arizonae
[42] = system: Klebsiella pneumoniae
[43] = system: Staphylococcus aureus
[44] = system: Bibersteinia trehalosi
[45] = system: Aspergillus fumigatus
[46] = system: Mannheimia haemolytica Serovar 2

`CC[C@H](C)[C@H](NC(=O)[C@@H]1CCCN1C(=O)[C@H](Cc1ccccc1)NC(=O)[C@@H](N)Cc1ccccc1)C(=O)N[C@H](C(=O)NCC(=O)N[C@@H](CCCCN)C(=O)N[C@@H](CC(C)C)C(=O)N[C@@H](CC(C)C)C(=O)N[C@@H](CO)C(=O)NCC(=O)N[C@@H](CC(C)C)C(=O)N[C@@H](CC(C)C)C(N)=O)C(C)C` [FFPIVGKLLSGLL] gave an MIC [1] of no less than 42.7 µM, an MIC [2] of 3.56 µM (≈ 5 µg/mL) and an MIC [3] of 5.34 µM (≈ 7.49 µg/mL). The MIC [4] was 14.2 µM (≈ 20 µg/mL), the MIC [5] was 5.34 µM (≈ 7.49 µg/mL) and the MIC [6] was no less than 53.4 µM. For the same compound, the MIC [7] was 3.56 µM (≈ 5 µg/mL) and the MIC [8] was 5.34 µM (≈ 7.49 µg/mL).
`CC(C)C[C@H](NC(=O)[C@H](CC(C)C)NC(=O)[C@H](CC(C)C)NC(=O)[C@@H]1CCCN1C(=O)[C@H](CC(C)C)NC(=O)[C@@H](N)Cc1ccccc1)C(=O)N[C@@H](C)C(=O)NCC(=O)N[C@@H](CC(C)C)C(=O)N1CCC[C@H]1C(=O)N[C@@H](CC(C)C)C(=O)N[C@@H](CCCCN)C(=O)N[C@@H](CC(C)C)C(=O)N[C@H]1CSSC[C@@H](C(=O)O)NC(=O)[C@H](CCCCN)NC(=O)[C@H](CCCCN)NC(=O)[C@H](Cc2ccccc2)NC(=O)[C@H](CC(C)C)NC(=O)[C@H](Cc2ccccc2)NC1=O` [FLPLLLAGLPLKLCFLFKKC] gave an MIC [9] of 21.9 µM (≈ 50 µg/mL), an MIC [10] of 5.49 µM (≈ 12.5 µg/mL) and an MIC [11] of no less than 43.9 µM. The MIC [12] was no less than 43.9 µM, the MIC [13] was no less than 43.9 µM and the MIC [14] was no less than 43.9 µM. For the same compound, the MIC [15] was greater than 43.9 µM, the MIC [16] was 21.9 µM (≈ 50 µg/mL) and the MIC [17] was 2.74 µM (≈ 6.24 µg/mL). It also gave an MIC [18] of 21.9 µM (≈ 50 µg/mL).
`CC[C@H](C)[C@H](NC(=O)[C@H](C)NC(=O)[C@H](CO)NC(=O)[C@@H](NC(=O)[C@H](C)NC(=O)[C@H](CC(N)=O)NC(=O)[C@@H](NC(=O)[C@H](C)NC(=O)[C@H](Cc1cnc[nH]1)NC(=O)[C@@H]1CCCN1C(=O)[C@@H](NC(=O)[C@H](CC(C)C)NC(=O)[C@H](CO)NC(=O)[C@H](CC(C)C)NC(=O)[C@@H](N)Cc1ccccc1)[C@@H](C)CC)[C@@H](C)CC)C(C)C)C(=O)N[C@@H](C)C(=O)N[C@@H](CCCCN)C(=O)N[C@@H](Cc1cnc[nH]1)C(=O)N[C@@H](Cc1ccccc1)C(N)=O` [FLSLIPHAINAVSAIAKHF] gave an MIC [19] of 6 µM (≈ 12.3 µg/mL), an MIC [20] of 7.2 µM (≈ 14.7 µg/mL) and an MIC [21] of 1.8 µM (≈ 3.69 µg/mL). For the same compound, the MIC [22] was 3.6 µM (≈ 7.37 µg/mL), the MIC [23] was 6 µM (≈ 12.3 µg/mL) and the MIC [24] was 6 µM (≈ 12.3 µg/mL).
Compound `CCC(C)[C@H](NC(=O)CN)C(=O)NCC(=O)N[C@@H](CCCCN)C(=O)N[C@@H](Cc1ccccc1)C(=O)N[C@@H](CC(C)C)C(=O)N[C@@H](Cc1cnc[nH]1)C(=O)N[C@@H](C)C(=O)N[C@@H](C)C(=O)N[C@@H](CCCCN)C(=O)N[C@@H](CCCCN)C(=O)N[C@@H](Cc1ccccc1)C(=O)N[C@@H](C)C(=O)N[C@@H](CCCCN)C(=O)N[C@@H](C)C(=O)N[C@@H](Cc1ccccc1)C(=O)N[C@H](C(=O)N[C@@H](C)C(=O)N[C@@H](CCC(=O)O)C(=O)N[C@H](C(=O)N[C@@H](CCSC)C(=O)N[C@@H](CC(N)=O)C(=O)N[C@@H](CO)C(N)=O)C(C)CC)C(C)C` (stereo partly specified) [GIGKFLHAAKKFAKAFVAEIMNS] has an MIC [25] of 20.2 µM (≈ 50 µg/mL), an MIC [26] of 20.2 µM (≈ 50 µg/mL) and an MIC [27] of 1.21 µM (≈ 3 µg/mL). The MIC [28] was 2.42 µM (≈ 6 µg/mL).
With `CC(C)C[C@H](NC(=O)CNC(=O)[C@H](CCCCN)NC(=O)[C@H](CCCCN)NC(=O)[C@H](CC(C)C)NC(=O)[C@H](CC(C)C)NC(=O)[C@H](C)NC(=O)[C@H](CC(N)=O)NC(=O)[C@H](CC(C)C)NC(=O)[C@H](Cc1c[nH]c2ccccc12)NC(=O)[C@@H](N)CCCCN)C(=O)N[C@@H](CC(N)=O)C(=O)N[C@@H](CS)C(=O)N[C@@H](C)C(=O)N[C@@H](CCCCN)C(=O)NCC(=O)N[C@H](C(=O)N[C@@H](CC(C)C)C(=O)N[C@@H](C)C(N)=O)C(C)C` [KWLNALLKKGLNCAKGVLA] the MIC [29] was 0.49 µM (≈ 1 µg/mL), the MIC [30] was 0.693 µM and 1.39 µM and the MIC [31] was 0.693 µM and 1.39 µM. The MIC [32] was 1.39 µM (≈ 2.83 µg/mL), the MIC [33] was 2.77 µM (≈ 5.65 µg/mL) and the MIC [34] was 1.39 µM (≈ 2.83 µg/mL). The MIC [35] was 5.54 µM (≈ 11.3 µg/mL).
Compound `CC[C@H](C)[C@H](NC(=O)[C@H](CCCN=C(N)N)NC(=O)[C@H](CCCN=C(N)N)NC(=O)[C@@H](NC(=O)[C@@H](N)CC(N)=O)[C@@H](C)CC)C(=O)N[C@H](C(=O)N[C@@H](CCCN=C(N)N)C(=O)N[C@@H](CCCCN)C(=O)N[C@H](C(=O)N[C@H](C(=O)N[C@@H](Cc1cnc[nH]1)C(=O)N[C@H](C(=O)N[C@H](C(=O)N[C@@H](CCCCN)C(=O)N[C@@H](CCCCN)C(=O)N[C@@H](Cc1ccc(O)cc1)C(=O)O)[C@@H](C)CC)[C@@H](C)CC)[C@@H](C)CC)[C@@H](C)CC)[C@@H](C)CC` [NIRRIIRKIIHIIKKY] has an MIC [36] of 1.59 µM (≈ 3.3 µg/mL), an MIC [37] of 2.02 µM (≈ 4.2 µg/mL) and an MIC [38] of 0.722 µM (≈ 1.5 µg/mL). It also gave an MIC [39] of 0.626 µM (≈ 1.3 µg/mL), an MIC [40] of 9.63 µM (≈ 20 µg/mL) and an MIC [41] of 2.41 µM (≈ 5 µg/mL). It also gave an MIC [42] of 0.818 µM (≈ 1.7 µg/mL), an MIC [43] of 4.81 µM (≈ 10 µg/mL) and an MIC [44] of 3.61 µM (≈ 7.5 µg/mL). The MIC [45] was 4 µM (≈ 8.3 µg/mL) and the MIC [46] was 1.59 µM (≈ 3.3 µg/mL).
